Columns and labels:
Assay in all cases: KINOMEscan
Format in all cases: binding
Conditions in all cases: 35 at 1 µM; read-out: % inhibition
[1] = target: T1, ABL1(H396P)-nonphosphorylated (Homo sapiens, UniProt P00519, H396P)
T1 construct: purchased Eurofins DiscoverX (KINOMEscan)
Method: (§1) KinomeScan Assay on 35 was performed as previously described at EuroFins DiscoverX (Fremont, CA, USA).

ACVR2B = target: T2, ACVR2B (Homo sapiens, UniProt Q13705)
T2 construct: purchased Eurofins DiscoverX (KINOMEscan)
Method: as §1

ADCK4 = target: T3, ADCK4 (Homo sapiens, UniProt Q96D53)
T3 construct: purchased Eurofins DiscoverX (KINOMEscan)
Method: as §1

BMPR2 = target: T4, BMPR2 (Homo sapiens, UniProt Q13873)
T4 construct: purchased Eurofins DiscoverX (KINOMEscan)
Method: as §1

BRAF(V600E) = target: T5, BRAF(V600E) (Homo sapiens, UniProt P15056, V600E)
T5 construct: purchased Eurofins DiscoverX (KINOMEscan)
T5 sequence (P15056 whole entry V600E): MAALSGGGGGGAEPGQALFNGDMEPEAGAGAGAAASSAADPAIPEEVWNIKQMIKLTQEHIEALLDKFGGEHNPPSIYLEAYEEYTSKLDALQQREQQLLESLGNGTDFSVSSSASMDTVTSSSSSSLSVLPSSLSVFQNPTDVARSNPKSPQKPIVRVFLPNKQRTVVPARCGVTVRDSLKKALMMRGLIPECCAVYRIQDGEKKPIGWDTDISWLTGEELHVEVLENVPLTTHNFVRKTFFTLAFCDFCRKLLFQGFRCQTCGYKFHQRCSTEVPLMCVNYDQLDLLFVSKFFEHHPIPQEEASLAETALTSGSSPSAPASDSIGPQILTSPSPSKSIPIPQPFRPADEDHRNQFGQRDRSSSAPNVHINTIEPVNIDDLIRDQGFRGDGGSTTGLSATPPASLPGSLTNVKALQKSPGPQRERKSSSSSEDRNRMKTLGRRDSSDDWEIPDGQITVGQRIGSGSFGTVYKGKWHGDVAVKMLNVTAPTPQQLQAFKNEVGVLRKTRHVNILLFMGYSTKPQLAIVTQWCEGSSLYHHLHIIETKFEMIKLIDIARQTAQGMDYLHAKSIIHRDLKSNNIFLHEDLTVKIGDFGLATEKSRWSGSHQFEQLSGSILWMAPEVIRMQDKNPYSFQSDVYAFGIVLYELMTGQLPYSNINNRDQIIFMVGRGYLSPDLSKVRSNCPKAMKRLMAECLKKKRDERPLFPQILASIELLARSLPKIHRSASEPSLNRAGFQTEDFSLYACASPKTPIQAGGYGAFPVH
Method: as §1

CAMK1 = target: T6, CAMK1 (Homo sapiens, UniProt Q14012)
T6 construct: purchased Eurofins DiscoverX (KINOMEscan)
T6 sequence (Q14012 whole entry): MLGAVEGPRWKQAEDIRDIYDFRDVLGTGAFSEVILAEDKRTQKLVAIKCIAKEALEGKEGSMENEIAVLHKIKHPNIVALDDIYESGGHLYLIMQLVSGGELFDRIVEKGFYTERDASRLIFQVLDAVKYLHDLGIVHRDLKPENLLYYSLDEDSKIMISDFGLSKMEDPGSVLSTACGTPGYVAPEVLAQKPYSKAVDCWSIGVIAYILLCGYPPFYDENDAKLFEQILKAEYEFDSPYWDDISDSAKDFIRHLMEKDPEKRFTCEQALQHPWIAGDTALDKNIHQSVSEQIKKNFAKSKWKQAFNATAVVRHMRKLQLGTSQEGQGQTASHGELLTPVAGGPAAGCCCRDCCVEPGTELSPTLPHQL
Method: as §1

CSNK1D = target: T7, CSNK1D (Homo sapiens, UniProt P48730)
T7 construct: purchased Eurofins DiscoverX (KINOMEscan)
Method: as §1

DYRK1B = target: T8, DYRK1B (Homo sapiens, UniProt Q9Y463)
T8 construct: purchased Eurofins DiscoverX (KINOMEscan)
Method: as §1

ERK2 = target: T9, ERK2 (Homo sapiens, UniProt P28482)
T9 construct: purchased Eurofins DiscoverX (KINOMEscan)
Method: as §1

FLT3 = target: T10, FLT3 (Homo sapiens, UniProt P36888)
T10 construct: purchased Eurofins DiscoverX (KINOMEscan)
T10 sequence (P36888 27-993): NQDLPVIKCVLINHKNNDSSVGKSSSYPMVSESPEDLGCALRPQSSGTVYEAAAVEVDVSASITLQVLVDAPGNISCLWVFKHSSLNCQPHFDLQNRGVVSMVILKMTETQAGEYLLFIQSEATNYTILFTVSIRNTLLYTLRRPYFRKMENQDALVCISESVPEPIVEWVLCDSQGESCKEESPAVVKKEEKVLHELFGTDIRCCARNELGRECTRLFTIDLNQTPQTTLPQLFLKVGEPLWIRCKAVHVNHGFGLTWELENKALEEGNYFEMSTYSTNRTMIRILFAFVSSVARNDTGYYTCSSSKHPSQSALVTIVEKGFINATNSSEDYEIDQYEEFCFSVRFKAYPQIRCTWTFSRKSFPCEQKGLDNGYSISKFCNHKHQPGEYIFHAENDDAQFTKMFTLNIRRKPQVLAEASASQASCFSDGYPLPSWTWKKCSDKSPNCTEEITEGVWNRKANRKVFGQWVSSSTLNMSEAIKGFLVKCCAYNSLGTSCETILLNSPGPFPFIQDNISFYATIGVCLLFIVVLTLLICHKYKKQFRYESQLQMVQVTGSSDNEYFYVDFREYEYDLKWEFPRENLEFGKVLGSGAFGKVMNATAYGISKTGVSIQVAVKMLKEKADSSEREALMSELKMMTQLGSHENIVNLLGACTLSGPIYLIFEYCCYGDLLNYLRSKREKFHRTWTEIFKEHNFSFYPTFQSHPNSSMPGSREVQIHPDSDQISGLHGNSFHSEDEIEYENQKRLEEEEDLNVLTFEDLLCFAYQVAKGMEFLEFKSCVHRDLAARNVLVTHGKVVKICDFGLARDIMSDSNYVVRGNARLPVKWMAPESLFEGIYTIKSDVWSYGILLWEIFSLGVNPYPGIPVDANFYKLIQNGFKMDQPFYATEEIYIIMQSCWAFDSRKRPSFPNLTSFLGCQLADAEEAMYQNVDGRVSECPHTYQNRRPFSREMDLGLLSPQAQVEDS
Method: as §1

FRK = target: T11, FRK (Homo sapiens, UniProt P42685)
T11 construct: purchased Eurofins DiscoverX (KINOMEscan)
Method: as §1

GSK3B = target: T12, GSK3B (Homo sapiens, UniProt P49841)
T12 construct: purchased Eurofins DiscoverX (KINOMEscan)
Method: as §1

HASPIN = target: T13, HASPIN (Homo sapiens, UniProt Q8TF76)
T13 construct: purchased Eurofins DiscoverX (KINOMEscan)
Method: as §1

IGF1R = target: T14, IGF1R (Homo sapiens, UniProt P08069)
T14 construct: purchased Eurofins DiscoverX (KINOMEscan)
Method: as §1

[2] = target: T15, JAK1(JH1domain-catalytic) (Homo sapiens, UniProt P23458)
T15 construct: JAK1(JH1domain-catalytic); purchased Eurofins DiscoverX (KINOMEscan)
T15 sequence (P23458 854-1154 limits assumed): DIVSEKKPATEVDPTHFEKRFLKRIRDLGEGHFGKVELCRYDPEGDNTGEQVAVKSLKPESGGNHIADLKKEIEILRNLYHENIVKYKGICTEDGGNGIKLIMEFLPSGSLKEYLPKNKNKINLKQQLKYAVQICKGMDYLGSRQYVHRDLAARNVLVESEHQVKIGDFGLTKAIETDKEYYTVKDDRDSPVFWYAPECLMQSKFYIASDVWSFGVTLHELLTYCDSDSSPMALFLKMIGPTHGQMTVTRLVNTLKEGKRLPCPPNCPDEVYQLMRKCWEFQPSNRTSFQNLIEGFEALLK
Method: as §1

KIT(V559D) = target: T16, KIT(V559D) (Homo sapiens, UniProt P10721, V559D)
T16 construct: purchased Eurofins DiscoverX (KINOMEscan)
Method: as §1

LATS1 = target: T17, LATS1 (Homo sapiens, UniProt O95835)
T17 construct: purchased Eurofins DiscoverX (KINOMEscan)
Method: as §1

MARK3 = target: T18, MARK3 (Homo sapiens, UniProt P27448)
T18 construct: purchased Eurofins DiscoverX (KINOMEscan)
Method: as §1

MELK = target: T19, MELK (Homo sapiens, UniProt Q14680)
T19 construct: purchased Eurofins DiscoverX (KINOMEscan)
T19 sequence (Q14680 whole entry): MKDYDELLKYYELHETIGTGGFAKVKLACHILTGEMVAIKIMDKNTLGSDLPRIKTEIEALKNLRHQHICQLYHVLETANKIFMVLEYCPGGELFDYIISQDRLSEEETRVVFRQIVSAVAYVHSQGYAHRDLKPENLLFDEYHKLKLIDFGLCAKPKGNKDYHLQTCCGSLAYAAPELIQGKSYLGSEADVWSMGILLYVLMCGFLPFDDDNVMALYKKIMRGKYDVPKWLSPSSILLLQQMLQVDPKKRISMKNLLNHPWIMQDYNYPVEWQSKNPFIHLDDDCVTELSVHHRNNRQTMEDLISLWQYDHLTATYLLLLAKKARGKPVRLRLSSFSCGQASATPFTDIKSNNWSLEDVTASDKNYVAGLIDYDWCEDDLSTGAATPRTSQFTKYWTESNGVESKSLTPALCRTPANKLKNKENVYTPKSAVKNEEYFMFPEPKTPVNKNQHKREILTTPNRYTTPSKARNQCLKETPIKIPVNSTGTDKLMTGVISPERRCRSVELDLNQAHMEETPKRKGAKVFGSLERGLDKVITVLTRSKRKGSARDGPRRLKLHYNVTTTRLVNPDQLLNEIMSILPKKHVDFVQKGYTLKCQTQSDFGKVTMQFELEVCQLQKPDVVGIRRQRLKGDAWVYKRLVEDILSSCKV
Method: as §1

MET = target: T20, MET (Homo sapiens, UniProt P08581)
T20 construct: purchased Eurofins DiscoverX (KINOMEscan)
Method: as §1

MKK7 = target: T21, MKK7 (Homo sapiens, UniProt O14733)
T21 construct: purchased Eurofins DiscoverX (KINOMEscan)
Method: as §1

MLK1 = target: T22, MLK1 (Homo sapiens, UniProt P80192)
T22 construct: purchased Eurofins DiscoverX (KINOMEscan)
Method: as §1

MLK2 = target: T23, MLK2 (Homo sapiens, UniProt Q02779)
T23 construct: purchased Eurofins DiscoverX (KINOMEscan)
Method: as §1

MYLK = target: T24, MYLK (Homo sapiens, UniProt Q15746)
T24 construct: purchased Eurofins DiscoverX (KINOMEscan)
Method: as §1

PAK2 = target: T25, PAK2 (Homo sapiens, UniProt Q13177)
T25 construct: purchased Eurofins DiscoverX (KINOMEscan)
Method: as §1

PAK6 = target: T26, PAK6 (Homo sapiens, UniProt Q9NQU5)
T26 construct: purchased Eurofins DiscoverX (KINOMEscan)
Method: as §1

PCTK3 = target: T27, PCTK3 (Homo sapiens, UniProt Q07002)
T27 construct: purchased Eurofins DiscoverX (KINOMEscan)
Method: as §1

PHKG1 = target: T28, PHKG1 (Homo sapiens, UniProt Q16816)
T28 construct: purchased Eurofins DiscoverX (KINOMEscan)
T28 sequence (Q16816 whole entry): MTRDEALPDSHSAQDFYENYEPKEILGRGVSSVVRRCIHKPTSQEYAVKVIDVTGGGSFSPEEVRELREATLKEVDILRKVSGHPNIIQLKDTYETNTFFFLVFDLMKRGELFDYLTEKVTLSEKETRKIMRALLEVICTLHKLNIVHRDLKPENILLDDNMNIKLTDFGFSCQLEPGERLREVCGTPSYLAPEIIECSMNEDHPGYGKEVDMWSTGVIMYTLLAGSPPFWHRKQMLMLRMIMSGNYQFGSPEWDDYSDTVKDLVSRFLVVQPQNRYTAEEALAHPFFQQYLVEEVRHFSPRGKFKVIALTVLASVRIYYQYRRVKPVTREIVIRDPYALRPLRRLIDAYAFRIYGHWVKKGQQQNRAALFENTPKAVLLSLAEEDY
Method: as §1

PIK3CA = target: T29, PIK3CA (Homo sapiens, UniProt P42336)
T29 construct: purchased Eurofins DiscoverX (KINOMEscan)
Method: as §1

PIK3CA(M1043I) = target: T30, PIK3CA(M1043I) (Homo sapiens, UniProt P42336, M1043I)
T30 construct: purchased Eurofins DiscoverX (KINOMEscan)
Method: as §1

PRKCD = target: T31, PRKCD (Homo sapiens, UniProt Q05655)
T31 construct: purchased Eurofins DiscoverX (KINOMEscan)
T31 sequence (Q05655 whole entry): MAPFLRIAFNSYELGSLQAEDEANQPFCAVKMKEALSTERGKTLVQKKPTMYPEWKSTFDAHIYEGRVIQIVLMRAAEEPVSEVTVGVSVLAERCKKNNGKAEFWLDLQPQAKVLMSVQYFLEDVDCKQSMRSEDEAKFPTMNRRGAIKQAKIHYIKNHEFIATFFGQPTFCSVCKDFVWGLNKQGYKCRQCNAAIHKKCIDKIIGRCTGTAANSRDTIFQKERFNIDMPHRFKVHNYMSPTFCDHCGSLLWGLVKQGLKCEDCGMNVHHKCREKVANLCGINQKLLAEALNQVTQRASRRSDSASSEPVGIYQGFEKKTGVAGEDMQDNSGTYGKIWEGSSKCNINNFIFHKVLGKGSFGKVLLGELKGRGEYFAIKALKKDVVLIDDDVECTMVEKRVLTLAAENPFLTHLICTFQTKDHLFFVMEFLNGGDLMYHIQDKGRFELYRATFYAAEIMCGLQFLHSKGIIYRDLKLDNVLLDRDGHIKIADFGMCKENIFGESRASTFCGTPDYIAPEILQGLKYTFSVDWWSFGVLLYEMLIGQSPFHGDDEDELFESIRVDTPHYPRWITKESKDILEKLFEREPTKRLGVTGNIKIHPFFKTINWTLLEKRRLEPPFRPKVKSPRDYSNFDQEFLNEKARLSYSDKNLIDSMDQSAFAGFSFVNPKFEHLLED
Method: as §1

RIOK3 = target: T32, RIOK3 (Homo sapiens, UniProt O14730)
T32 construct: purchased Eurofins DiscoverX (KINOMEscan)
Method: as §1

ROCK2 = target: T33, ROCK2 (Homo sapiens, UniProt O75116)
T33 construct: purchased Eurofins DiscoverX (KINOMEscan)
Method: as §1

SGK2 = target: T34, SGK2 (Homo sapiens, UniProt Q9HBY8)
T34 construct: purchased Eurofins DiscoverX (KINOMEscan)
Method: as §1

SIK2 = target: T35, SIK2 (Homo sapiens, UniProt Q9H0K1)
T35 construct: purchased Eurofins DiscoverX (KINOMEscan)
T35 sequence (Q9H0K1 whole entry): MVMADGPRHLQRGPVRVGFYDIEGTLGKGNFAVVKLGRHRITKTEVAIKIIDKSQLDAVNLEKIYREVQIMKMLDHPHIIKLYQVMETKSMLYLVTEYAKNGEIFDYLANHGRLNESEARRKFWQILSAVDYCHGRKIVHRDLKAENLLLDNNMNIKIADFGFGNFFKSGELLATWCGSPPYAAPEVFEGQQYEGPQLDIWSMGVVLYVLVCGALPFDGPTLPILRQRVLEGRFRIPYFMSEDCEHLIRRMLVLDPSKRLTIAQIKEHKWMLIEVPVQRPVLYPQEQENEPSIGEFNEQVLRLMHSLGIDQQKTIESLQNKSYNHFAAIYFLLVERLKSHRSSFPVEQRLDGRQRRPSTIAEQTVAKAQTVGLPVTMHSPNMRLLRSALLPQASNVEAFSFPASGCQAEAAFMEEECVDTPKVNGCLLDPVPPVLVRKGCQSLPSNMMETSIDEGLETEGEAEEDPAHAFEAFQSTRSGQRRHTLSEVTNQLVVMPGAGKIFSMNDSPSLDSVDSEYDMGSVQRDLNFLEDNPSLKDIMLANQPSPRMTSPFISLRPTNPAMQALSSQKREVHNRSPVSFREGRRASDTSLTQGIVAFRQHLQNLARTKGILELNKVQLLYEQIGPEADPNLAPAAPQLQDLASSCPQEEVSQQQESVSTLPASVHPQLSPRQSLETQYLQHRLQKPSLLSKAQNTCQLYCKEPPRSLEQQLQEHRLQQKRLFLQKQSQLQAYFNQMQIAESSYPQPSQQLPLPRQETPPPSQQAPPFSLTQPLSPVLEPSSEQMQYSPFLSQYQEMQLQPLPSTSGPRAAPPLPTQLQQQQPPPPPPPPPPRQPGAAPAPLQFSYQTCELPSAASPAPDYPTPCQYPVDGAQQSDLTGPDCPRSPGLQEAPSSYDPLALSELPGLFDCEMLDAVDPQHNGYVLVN
Method: as §1

SRPK2 = target: T36, SRPK2 (Homo sapiens, UniProt P78362)
T36 construct: purchased Eurofins DiscoverX (KINOMEscan)
Method: as §1

TAK1 = target: T37, TAK1 (Homo sapiens, UniProt O43318)
T37 construct: purchased Eurofins DiscoverX (KINOMEscan)
Method: as §1

TGFBR1 = target: T38, TGFBR1 (Homo sapiens, UniProt P36897)
T38 construct: purchased Eurofins DiscoverX (KINOMEscan)
Method: as §1

TSSK3 = target: T39, TSSK3 (Homo sapiens, UniProt Q96PN8)
T39 construct: purchased Eurofins DiscoverX (KINOMEscan)
Method: as §1

TTK = target: T40, TTK (Homo sapiens, UniProt P33981)
T40 construct: purchased Eurofins DiscoverX (KINOMEscan)
Method: as §1

VRK2 = target: T41, VRK2 (Homo sapiens, UniProt Q86Y07)
T41 construct: purchased Eurofins DiscoverX (KINOMEscan)
Method: as §1

ZAK = target: T42, ZAK (Homo sapiens, UniProt Q9NYL2)
T42 construct: purchased EuroFins DiscoverX (Fremont, CA, USA)
Method: as §1

p38-alpha = target: T43, p38-alpha (Homo sapiens, UniProt Q16539)
T43 construct: purchased Eurofins DiscoverX (KINOMEscan)
Method: as §1

Measured: activity at 1 µM

Brc1ccc2nccc(Nc3ccc4cn[nH]c4c3)c2c1 [Compound 35, 6-Bromo-N-(1H-indazol-6-yl)quinolin-4-amine]
97%: GSK3B | SIK2
94%: CSNK1D
91%: ROCK2
80%: BRAF(V600E)
85%: PAK2
96%: SGK2
77%: TSSK3
36%: ACVR2B
86%: [1]
99%: PIK3CA(M1043I)
79%: HASPIN
100%: all other assays above

— publication PMC6891286, “Towards the Development of an In vivo Chemical Probe for Cyclin G Associated Kinase (GAK)” (Molecules, 2019)
